In ChEMBL document CHEMBL3885881, “DrugMatrix”:

Species: Rattus norvegicus
Test: DrugMatrix - Regimen: Daily Repeat
Type: toxicity, organism-based, Sprague-Dawley
Set-up: regimen Daily Repeat, gender Male, age 6-8 weeks
Details: in vivo, po, route oral GAVAGE, vehicle .5 % CMC; for ABSOLUTE BASOPHIL / ABSOLUTE EOSINOPHIL / ABSOLUTE LYMPHOCYTE / ABSOLUTE MONOCYTE / ABSOLUTE SEGMENTED NEUTROPHIL / BASOPHIL / EOSINOPHIL / ERYTHROCYTE COUNT / HEMATOCRIT / HEMOGLOBIN / LEUKOCYTE COUNT / LYMPHOCYTE / MEAN CORPUSCULAR HEMOGLOBIN / MEAN CORPUSCULAR HEMOGLOBIN CONCENTRATION / MEAN CORPUSCULAR VOLUME / MONOCYTE / NEUTROPHIL / NUCLEATED RED BLOOD CELLS / PLATELET COUNT: tissue Blood; for ALANINE AMINOTRANSFERASE / ALBUMIN / ALKALINE PHOSPHATASE / ASPARTATE AMINOTRANSFERASE / BLOOD UREA NITROGEN / CARBON DIOXIDE / CHLORIDE / CHOLESTEROL / CREATINE PHOSPHOKINASE / CREATININE / GLUCOSE / LACTATE DEHYDROGENASE / LIPASE / PHOSPHORUS / POTASSIUM / SODIUM / TOTAL BILIRUBIN / TOTAL PROTEIN / URIC ACID: tissue Plasma
[1] = 100 mg/kg, 72 h, dose level Low, time 3 day
[2] = 100 mg/kg, 120 h, dose level Low, time 5 day
[3] = 1000 mg/kg, 72 h, dose level High, time 3 day
[4] = 1000 mg/kg, 120 h, dose level High, time 5 day

For `CC1CN(c2cc3c(cc2F)c(=O)c(C(=O)O)cn3-c2ccc(F)cc2F)CCN1` (configuration not stated) [TEMAFLOXACIN], the “ABSOLUTE BASOPHIL” value [1] was 0 CELLS/uL, the “ABSOLUTE EOSINOPHIL” value [1] was 0 CELLS/uL and the “ABSOLUTE LYMPHOCYTE” value [1] was 10703 CELLS/uL. The “ABSOLUTE MONOCYTE” value [1] was 236.33 CELLS/uL, the “ABSOLUTE SEGMENTED NEUTROPHIL” value [1] was 1027.33 CELLS/uL and the BASOPHIL [1] was 0%. For the same compound, the EOSINOPHIL [1] was 0%, the “ERYTHROCYTE COUNT” value [1] was 5.1 x10E6/uL and the HEMATOCRIT [1] was 32.03%. For the same compound, the HEMOGLOBIN [1] was 12.13 G/DL, the “LEUKOCYTE COUNT” value [1] was 11.97 x10E3/uL and the LYMPHOCYTE [1] was 88.33%. For the same compound, the “MEAN CORPUSCULAR HEMOGLOBIN” value [1] was 23.83 pg, the “MEAN CORPUSCULAR HEMOGLOBIN CONCENTRATION” value [1] was 37.93 G/DL and the “MEAN CORPUSCULAR VOLUME” value [1] was 62.83 fL. For the same compound, the MONOCYTE [1] was 2.33%, the NEUTROPHIL [1] was 9.33% and the “NUCLEATED RED BLOOD CELLS” value [1] was 0 /100WBC. For the same compound, the “PLATELET COUNT” value [1] was 1089.33 x10E3/uL, the “ALANINE AMINOTRANSFERASE” value [1] was 64.67 u/L and the ALBUMIN [1] was 4.07 G/DL. For the same compound, the “ALKALINE PHOSPHATASE” value [1] was 401.33 u/L, the “ASPARTATE AMINOTRANSFERASE” value [1] was 92.33 u/L and the “BLOOD UREA NITROGEN” value [1] was 15.67 mg/dL. For the same compound, the “CARBON DIOXIDE” value [1] was 35 mmol/L, the CHLORIDE [1] was 98.67 MEQ/L and the CHOLESTEROL [1] was 91 mg/dL. The “CREATINE PHOSPHOKINASE” value [1] was 525.67 u/L, the CREATININE [1] was 0.24 mg/dL and the GLUCOSE [1] was 143 mg/dL. For the same compound, the “LACTATE DEHYDROGENASE” value [1] was 134.67 u/L, the LIPASE [1] was 9 u/L and the PHOSPHORUS [1] was 12.2 mg/dL. For the same compound, the POTASSIUM [1] was 5.94 MEQ/L, the SODIUM [1] was 143.63 MEQ/L and the “TOTAL BILIRUBIN” value [1] was 0.23 mg/dL. For the same compound, the “TOTAL PROTEIN” value [1] was 6.3 G/DL, the “URIC ACID” value [1] was 0.53 mg/dL and the “ABSOLUTE BASOPHIL” value [2] was 0 CELLS/uL. The “ABSOLUTE EOSINOPHIL” value [2] was 33 CELLS/uL, the “ABSOLUTE LYMPHOCYTE” value [2] was 9070.33 CELLS/uL and the “ABSOLUTE MONOCYTE” value [2] was 218.67 CELLS/uL. For the same compound, the “ABSOLUTE SEGMENTED NEUTROPHIL” value [2] was 878 CELLS/uL, the BASOPHIL [2] was 0% and the EOSINOPHIL [2] was 0.33%. For the same compound, the “ERYTHROCYTE COUNT” value [2] was 5.56 x10E6/uL, the HEMATOCRIT [2] was 33.53% and the HEMOGLOBIN [2] was 12.97 G/DL. For the same compound, the “LEUKOCYTE COUNT” value [2] was 10.2 x10E3/uL, the LYMPHOCYTE [2] was 88.67% and the “MEAN CORPUSCULAR HEMOGLOBIN” value [2] was 23.37 pg. The “MEAN CORPUSCULAR HEMOGLOBIN CONCENTRATION” value [2] was 38.7 G/DL, the “MEAN CORPUSCULAR VOLUME” value [2] was 60.37 fL and the MONOCYTE [2] was 2%. For the same compound, the NEUTROPHIL [2] was 9%, the “NUCLEATED RED BLOOD CELLS” value [2] was 0 /100WBC and the “PLATELET COUNT” value [2] was 1110.67 x10E3/uL. For the same compound, the “ALANINE AMINOTRANSFERASE” value [2] was 48.67 u/L, the ALBUMIN [2] was 4.43 G/DL and the “ALKALINE PHOSPHATASE” value [2] was 449.67 u/L. For the same compound, the “ASPARTATE AMINOTRANSFERASE” value [2] was 74.33 u/L, the “BLOOD UREA NITROGEN” value [2] was 15.33 mg/dL and the “CARBON DIOXIDE” value [2] was 37 mmol/L. For the same compound, the CHLORIDE [2] was 98 MEQ/L, the CHOLESTEROL [2] was 89.67 mg/dL and the “CREATINE PHOSPHOKINASE” value [2] was 298.67 u/L. For the same compound, the CREATININE [2] was 0.34 mg/dL, the GLUCOSE [2] was 138.67 mg/dL and the “LACTATE DEHYDROGENASE” value [2] was 126 u/L. It also gave an LIPASE [2] of 7.67 u/L, a PHOSPHORUS [2] of 12.27 mg/dL and a POTASSIUM [2] of 5.95 MEQ/L. The SODIUM [2] was 144.33 MEQ/L, the “TOTAL BILIRUBIN” value [2] was 0.23 mg/dL and the “TOTAL PROTEIN” value [2] was 6.37 G/DL. For the same compound, the “URIC ACID” value [2] was 0.8 mg/dL, the “ABSOLUTE BASOPHIL” value [3] was 0 CELLS/uL and the “ABSOLUTE EOSINOPHIL” value [3] was 0 CELLS/uL. The “ABSOLUTE LYMPHOCYTE” value [3] was 8968.67 CELLS/uL, the “ABSOLUTE MONOCYTE” value [3] was 91.33 CELLS/uL and the “ABSOLUTE SEGMENTED NEUTROPHIL” value [3] was 740 CELLS/uL. For the same compound, the BASOPHIL [3] was 0%, the EOSINOPHIL [3] was 0% and the “ERYTHROCYTE COUNT” value [3] was 5.3 x10E6/uL. The HEMATOCRIT [3] was 32.17%, the HEMOGLOBIN [3] was 12.37 G/DL and the “LEUKOCYTE COUNT” value [3] was 9.8 x10E3/uL. The LYMPHOCYTE [3] was 91.33%, the “MEAN CORPUSCULAR HEMOGLOBIN” value [3] was 23.43 pg and the “MEAN CORPUSCULAR HEMOGLOBIN CONCENTRATION” value [3] was 38.47 G/DL. The “MEAN CORPUSCULAR VOLUME” value [3] was 60.8 fL, the MONOCYTE [3] was 1% and the NEUTROPHIL [3] was 7.67%. The “NUCLEATED RED BLOOD CELLS” value [3] was 0 /100WBC, the “PLATELET COUNT” value [3] was 1214 x10E3/uL and the “ALANINE AMINOTRANSFERASE” value [3] was 59 u/L. The ALBUMIN [3] was 3.67 G/DL, the “ALKALINE PHOSPHATASE” value [3] was 384 u/L and the “ASPARTATE AMINOTRANSFERASE” value [3] was 87 u/L. For the same compound, the “BLOOD UREA NITROGEN” value [3] was 13 mg/dL, the “CARBON DIOXIDE” value [3] was 35.33 mmol/L and the CHLORIDE [3] was 99 MEQ/L. The CHOLESTEROL [3] was 84.33 mg/dL, the “CREATINE PHOSPHOKINASE” value [3] was 684.67 u/L and the CREATININE [3] was 0.26 mg/dL. The GLUCOSE [3] was 138.33 mg/dL, the “LACTATE DEHYDROGENASE” value [3] was 131 u/L and the LIPASE [3] was 9 u/L. The PHOSPHORUS [3] was 11.53 mg/dL, the POTASSIUM [3] was 5.74 MEQ/L and the SODIUM [3] was 143.93 MEQ/L. The “TOTAL BILIRUBIN” value [3] was 0.2 mg/dL, the “TOTAL PROTEIN” value [3] was 5.97 G/DL and the “URIC ACID” value [3] was 0.37 mg/dL. The “ABSOLUTE BASOPHIL” value [4] was 0 CELLS/uL, the “ABSOLUTE EOSINOPHIL” value [4] was 32 CELLS/uL and the “ABSOLUTE LYMPHOCYTE” value [4] was 12898.67 CELLS/uL. The “ABSOLUTE MONOCYTE” value [4] was 145 CELLS/uL, the “ABSOLUTE SEGMENTED NEUTROPHIL” value [4] was 424.33 CELLS/uL and the BASOPHIL [4] was 0%. For the same compound, the EOSINOPHIL [4] was 0.33%, the “ERYTHROCYTE COUNT” value [4] was 5.35 x10E6/uL and the HEMATOCRIT [4] was 31.83%. For the same compound, the HEMOGLOBIN [4] was 12.7 G/DL, the “LEUKOCYTE COUNT” value [4] was 13.5 x10E3/uL and the LYMPHOCYTE [4] was 95.33%. For the same compound, the “MEAN CORPUSCULAR HEMOGLOBIN” value [4] was 23.77 pg, the “MEAN CORPUSCULAR HEMOGLOBIN CONCENTRATION” value [4] was 39.9 G/DL and the “MEAN CORPUSCULAR VOLUME” value [4] was 59.53 fL. For the same compound, the MONOCYTE [4] was 1%, the NEUTROPHIL [4] was 3.33% and the “NUCLEATED RED BLOOD CELLS” value [4] was 0 /100WBC. For the same compound, the “PLATELET COUNT” value [4] was 1130.67 x10E3/uL, the “ALANINE AMINOTRANSFERASE” value [4] was 52.33 u/L and the ALBUMIN [4] was 3.8 G/DL. For the same compound, the “ALKALINE PHOSPHATASE” value [4] was 253 u/L, the “ASPARTATE AMINOTRANSFERASE” value [4] was 80.33 u/L and the “BLOOD UREA NITROGEN” value [4] was 13.67 mg/dL. For the same compound, the “CARBON DIOXIDE” value [4] was 33.33 mmol/L, the CHLORIDE [4] was 100.33 MEQ/L and the CHOLESTEROL [4] was 76.67 mg/dL. For the same compound, the “CREATINE PHOSPHOKINASE” value [4] was 375.67 u/L, the CREATININE [4] was 0.32 mg/dL and the GLUCOSE [4] was 145 mg/dL. For the same compound, the “LACTATE DEHYDROGENASE” value [4] was 188.33 u/L, the LIPASE [4] was 8.33 u/L and the PHOSPHORUS [4] was 11.47 mg/dL. The POTASSIUM [4] was 5.93 MEQ/L, the SODIUM [4] was 145.13 MEQ/L and the “TOTAL BILIRUBIN” value [4] was 0.2 mg/dL. For the same compound, the “TOTAL PROTEIN” value [4] was 5.77 G/DL and the “URIC ACID” value [4] was 0.83 mg/dL.
